Laboratory results reported in patent publication US20260284153A1, “COMPOSITION COMPRISING GV1001 FOR PREVENTING OR TREATING PERIODONTAL DISEASES AND DISORDERS CAUSED BY PERIODONTAL DISEASES” (GEMVAX & KAEL CO., LTD., priority 2023, published 2026).

How the values were obtained:
[1] = tested on: Alzheimer's disease induced by periodontitis; test: Periodontitis-related Alzheimer's disease efficacy in Pg-treated ApoE-/- mouse model; assay type: in vivo, ApoE−/− mice (C57BL/6 background); settings: GV1001 2 mg/kg i.p., vs control
From the text: (§1) An animal model was created using ApoE^−/^− mice (C57BL/6 background, male, 4 weeks old).
(§2) Animal models were fed with a high-fat diet (HFD), and a 6-0 silk ligature was placed around the maxillary second molar to create a gingival pocket using the ligature placement method for 1 week, followed by treatment with Porphyromonas gingivalis (Pg) or PBS for 5 weeks.
The expression levels of inflammatory cytokines, the aggregation of Porphyromonas gingivalis, Porphyromonas gingivalis LPS and Kgp, RgpB, and the accumulation of Aβ42 and p-Tau in brain tissue were confirmed.

[2] = tested on: human umbilical vein endothelial cells (HUVECs); test: EndMT of HUVECs stimulated with TNF-α and Porphyromonas gingivalis LPS; assay type: cell-based; settings: FIGS. 13A, 13B
Method: (§3) The expression levels of inflammatory cytokines in serum and arterial tissue, the aggregation of Porphyromonas gingivalis, Porphyromonas gingivalis LPS, Kgp and RgpB in arterial tissue, changes in cholesterol levels in serum, and lipid deposition (atherosclerosis) in the arterial wall were determined. In vitro, inhibition of EndMT and inhibition of macrophage uptake of dil-ox-LDL were evaluated. Further, the CD47 expression levels were determined in the aortic root in vivo and in vitro.
It is known that when endothelial cells (ECs) change their phenotype into mesenchymal cells (MCs) through endothelial-to-mesenchymal transition (EndMT), it induces various vascular diseases (atherosclerosis, pulmonary hypertension, fibrosis, etc.). TNF-α is known as a cytokine involved in this process. In the present invention, it was confirmed that when human umbilical vein endothelial cells (HUVECs) were stimulated with TNF-α and Porphyromonas gingivalis LPS, ECs (marker; CD31) were decreased while MCs (marker; FSP-1) were increased due to EndMT (FIGS. 13A and 13B). • Control group: EndMT of HUVECs was confirmed to progress by TNF-α and Porphyromonas gingivalis LPS. • GV1001 administration group: The EndMT progression of HUVECs was confirmed to be inhibited by GV1001. […]

Raw264.7 = test: In vitro osteoclastogenesis of macrophage cell line induced into osteoclasts; assay type: cell-based; settings: Raw264.7 induced into osteoclasts; FIGS. 6A to 6E
Method: (§4) The depth of the periodontal pocket, the expression level of inflammatory cytokines in the gingival tissue (mRNA level, IF staining), the aggregation of Porphyromonas gingivalis, Porphyromonas gingivalis LPS, Kgp and RgpB in the gingival tissue, the amount of alveolar bone loss, and the number of osteoclasts in the alveolar bone were determined. Further, the effect on osteoclastogenesis was confirmed in an in vitro test.
To confirm the efficacy of GV1001 on alveolar bone loss, μCT was used to determine alveolar bone loss in a periodontitis-induced animal model (FIGS. 4A to 4C), and the number of osteoclasts in the alveolar bone was determined by TRAP staining (FIGS. 5A and 5B).

[3] = tested on: CD47 in human coronary artery smooth muscle cells (HCASMC); test: CD47 expression in HCASMC treated with TNF-α and Porphyromonas gingivalis LPS; assay type: cell-based; settings: TNF-α and Porphyromonas gingivalis LPS treatment; FIGS. 16A to 16F
Method: as §3
CD47, a representative anti-phagocytic factor, is known to interfere with the removal of cancer cells by macrophages, and overexpression of CD47 is known to cause atherosclerosis. In the present invention, the expression level of CD47 in the aortic root was confirmed in an animal model of periodontitis induction (FIGS. 15A and 15B). […] 2.3 Effect of GV1001 in Alzheimer's Disease Associated with Periodontitis

[4] = tested on: gingipain (RgpA, RgpB, Kgp); test: In vitro expression of gingipain in Porphyromonas gingivalis; assay type: cell-based; settings: FIG. 23
Method: To understand the fundamental mechanism of Porphyromonas gingivalis colony formation, and the reduction of Porphyromonas gingivalis LPS and gingipain by GV1001 in gingival tissues, arterial walls and brain, the effect of GV1001 on the expression of gingipain, which is an enzyme important for the growth and tissue invasion of Porphyromonas gingivalis, was investigated. […] Very low doses (5-30 μM) of GV1001 reduced the expression of RgpA and RgpB by approximately 5 times and the expression of Kgp by approximately 3 times, compared with the control group (Porphyromonas gingivalis 16S IRNA) (FIG. 23).

[5] = tested on: Porphyromonas gingivalis-induced periodontitis; test: Periodontitis efficacy in Pg-treated, ligature-placed, high-fat-diet ApoE-/- mouse model; assay type: in vivo, ApoE−/− mice (C57BL/6 background)
From the text: as §1, §2, §4

[6] = tested on: atherosclerosis induced by periodontitis; test: Periodontitis-related atherosclerosis efficacy in Pg-treated ApoE-/- mouse model; assay type: in vivo, ApoE−/− mice (C57BL/6 background); settings: GV1001 2 mg/kg i.p., vs control
From the text: as §1, §2, §3

[7] = tested on: macrophages differentiated from THP-1 (human monocyte cell line) cells; test: ox-LDL uptake by macrophages differentiated from THP-1 cells; assay type: cell-based; settings: induced by TNF-α and Porphyromonas gingivalis LPS; THP-1-derived macrophages; FIGS. 14A, 14B
Method: as §3
It is known that the formation of foam cells by macrophages in response to LDL and TNF-α is an important process in atherosclerosis. […] As a result, this means that the inhibition of atherogenesis by GV1001 is partly due to its inhibitory effect on foam cell formation.

[8] = 5-30 μM GV1001, compared with the control group (Porphyromonas gingivalis 16S IRNA)
[9] = GV1001 2 mg/kg i.p., vs control, FIGS. 3A, 3B

Q: For “GV1001: peptide consisting of 16 amino acids, SEQ ID NO: 1, derived from human telomerase reverse transcriptase (hTERT) (EARPALLTSRLRFIPK; UniProt O14746 611-626, looked up, fragment)”, which “inflammatory cytokine (IL-1β, TNF-α, IL-6) mRNA levels in brain tissue” value ([1]; FIG. 17) is on record?
A: significantly reduced

Q: What about the “inflammatory cytokine expression in brain tissue by fluorescent staining” value ([1]; FIGS. 18A to 19B) of the same substance?
A: decrease in cytokine expression was confirmed

Q: And the “Porphyromonas gingivalis LPS in the cerebral cortex and hippocampus” value ([1]; FIGS. 20A to 21B)?
A: significantly reduced

Q: And the “gingipain (Kgp, RgpB) in the cerebral cortex and hippocampus” value ([1]; FIGS. 20A to 21B)?
A: significantly reduced

Q: And the “number of Porphyromonas gingivalis colonies in the cerebral cortex and hippocampus” value ([1]; FIGS. 20A to 21B)?
A: significantly reduced

Q: What about the “accumulation of Aβ42 in the cerebral cortex and hippocampus” value ([1]; FIGS. 22A, 22B) of the same substance?
A: significantly reduced

Q: And the “accumulation of p-Tau in the cerebral cortex and hippocampus” value ([1]; FIGS. 22A, 22B)?
A: significantly reduced

Q: What about the “EndMT progression of HUVECs (CD31, FSP-1 markers)” value [2] of the same substance?
A: inhibited

Q: And the osteoclastogenesis in vitro (Raw264.7)?
A: significantly inhibited

Q: And the “expression level of CD47 in HCASMC” value [3]?
A: significantly reduced

Q: What about the “reduction of expression of Kgp” value [4, 8] of the same substance?
A: approximately 3 times

Q: What about the “reduction of expression of RgpA” value [4, 8] of the same substance?
A: approximately 5 times

Q: What about the “reduction of expression of RgpB” value [4, 8] of the same substance?
A: approximately 5 times

Q: And the “expression of gingipain in vitro” value [4]?
A: markedly inhibited

Q: And the “inflammatory cytokine (IL-1β, TNF-α, IL-6) mRNA levels in periodontal tissue” value ([5]; GV1001 2 mg/kg i.p. 3 times/week for 10 weeks, vs periodontitis control, FIG. 1)?
A: significantly reduced

Q: And the “inflammatory cytokines (IL-1β, TNF-α, IL-6, GM-CSF, VEGF, IL-17, KC) in serum” value ([5]; GV1001 2 mg/kg i.p., all cytokines, vs control, FIGS. 7A, 7B)?
A: significantly suppressed

Q: What about the “Porphyromonas gingivalis LPS in gingival tissue” value [5, 9] of the same substance?
A: significantly reduced

Q: And the “gingipain (Kgp, RgpB) in gingival tissue” value [5, 9]?
A: significantly reduced

Q: What about the “number of Porphyromonas gingivalis colonies in gingival tissue” value [5, 9] of the same substance?
A: significantly reduced

Q: What about the “alveolar bone loss (μCT)” value ([5]; GV1001 2 mg/kg i.p., vs control, FIGS. 4A to 4C) of the same substance?
A: significantly reduced

Q: What about the “osteoclastogenesis in alveolar bone (number of osteoclasts, TRAP staining)” value ([5]; GV1001 2 mg/kg i.p., vs control, FIGS. 5A, 5B) of the same substance?
A: significantly inhibited

Q: And the “inflammatory cytokine expression in periodontal tissue by fluorescent staining” value ([5]; GV1001 2 mg/kg i.p., vs periodontitis control, FIGS. 2A, 2B)?
A: decrease in cytokine expression was confirmed

Q: And the “inflammatory cytokine (IL-1β, TNF-α, IL-6) mRNA levels in arterial tissue” value ([6]; FIG. 8)?
A: significantly reduced

Q: And the “inflammatory cytokine expression in arterial tissue by fluorescent staining” value ([6]; FIGS. 9A, 9B)?
A: decrease in cytokine expression was confirmed

Q: And the “Porphyromonas gingivalis LPS in the arterial wall” value ([6]; FIGS. 10A, 10B)?
A: significantly reduced

Q: What about the “gingipain (Kgp, RgpB) in the arterial wall” value ([6]; FIGS. 10A, 10B) of the same substance?
A: significantly reduced

Q: What about the “number of Porphyromonas gingivalis colonies in the arterial wall” value ([6]; FIGS. 10A, 10B) of the same substance?
A: significantly reduced

Q: And the “level of low-density lipoprotein (LDL) in serum” value ([6]; FIGS. 11A, 11B)?
A: significantly reduced

Q: What about the “level of total cholesterol (TC) in serum” value ([6]; FIGS. 11A, 11B) of the same substance?
A: significantly reduced

Q: And the “expression level of CD47 in the aortic root” value ([6]; FIGS. 15A, 15B)?
A: significantly reduced

Q: And the “intravascular lipid deposition, wall of the aorta-iliac bifurcation” value ([6]; Sudan IV and Oil Red O staining, FIGS. 12A, 12B)?
A: significantly suppressed

Q: What about the ox-LDL uptake [7] of the same substance?
A: significantly inhibited
